Measured values taken from patent US20240041898A9, “NEUROSTEROIDS AND ENANTIOMERS THEREOF FOR THE PREVENTION AND TREATMENT OF NEURODEGENERATIVE CONDITIONS” (priority 2019, published 2024).
Several values for one entry are separate records, joined by “and”; a condition that tells them apart may be missing. Identical values can stand only once.

Experiments:
[1] = test system: retinal ganglion cells (RGCs); assay: Ex vivo pressure-loaded whole mounted retinas, NeuN-positive RGC survival; assay type: cell-based, rat; conditions: 75 mmHg, 1 μM; for RGC Survival (number of NeuN-positive cells), individual areas 1-5: single values
Description: (§1) Rat ex vivo Eyecup Preparation—Rat ex vivo eyecups were prepared from 28-32 day old male Sprague-Dawley rats (Charles River Laboratories International Inc., Wilmington, MA). The anterior half of the enucleated eyes was carefully removed to make eyecup preparations. Eyecups were placed at the bottom of a 100 ml glass beaker filled with aCSF (artificial cerebrospinal fluid) containing (in mM): 124 NaCl, 5 KCl, 2 MgSO4, 2 CaCl2, 1.25 NaH2PO4, 22 NaHCO3, and 10 glucose, and incubated at 30° C. for 24 hours using a closed pressure-loading system (FIG. 1C). pH was maintained at 7.35 to 7.40. In the closed-pressure system, a glass beaker with the eyecup was placed at the bottom of an acrylic pressure chamber (2,000 ml volume). A 95% O2-5% CO2 gas mixture was delivered through disposable plastic tubing with an infusion valve and a control dial on the lid of the pressure chamber and an air filter (Cat #SLGP033RS, Merck Millipore, Billerica, MA). The plastic tubing delivering the gas terminated 1 cm above the bottom of the beaker.
(§2) Acutely prepared eyecups were incubated in gassed aCSF for at least 1 h at 30° C. before pressure loading. In some experiments, AlloP (1 μM), ent-AlloP (1 μM), and 3-MA (10 mM) were dissolved in aCSF at the time of experiment and administered by bath perfusion. Eyecup preparations were treated with these drugs for 1 h at 30° C. before pressure loading. For pressure loading, the 95% O2-5% CO2 gas mixture was infused until the pressure reading given by a manometer reached the appropriate level. The pressure was then locked by adjusting the control dial of the effusion valve, and monitored continuously for 24 h at 30° C.
Preparation of whole mounted retinas and immunostaining—The retina was carefully detached from the eye by making cuts along the ora serrata and optic nerve. […] Each quadrant was analyzed using a 1 mm^2 frame, and counted using Image-Pro Plus software. […] RGC counts were analyzed using Image-Pro Plus software. NeuN positive RGCs were determined as the measurement of 5 different areas from three eyes per experimental condition.

[2] = test system: p62; assay: Ex vivo pressure-loaded retinas, Western blot of p62; assay type: cell-based, rat; conditions: ex vivo, 75 mmHg; for p62 expression (FIG. 2S), individual experiments 1-5: 1 μM, relative units, 10 mmHg = 1.00
Description: as §1, §2
Western Blot Analysis—At the end of each experiment, the posterior segments of the eye were placed on a flat cutting surface and immersed in ice-cold aCSF. With a surgical blade, the retina was carefully and gently detached from the sclera with a fine forceps. The isolated retinas were frozen at −80° C. Retinas were then homogenized in lysis buffer solution (CelLytic MT; Sigma-Aldrich, Inc.) with protease inhibitor cocktail (Sigma-Aldrich, Inc.), prepared according to the manufacturer's instructions. The tissue extracts were ultrasonicated and clarified by centrifugation at 12,000 g for 20 minutes at 4° C. The protein concentrations in supernatants were assayed (Quant-iT assay kit; Invitrogen Corp., Carlsbad, CA). Twenty micrograms of retinal extract were subjected to SDS polyacrylamide gel electrophoretic analysis. The proteins were then transferred to a PVDF. Immunoblots by polyclonal rabbit anti-LC3B antibody (MBL Life Science) or anti-SQSTMl/p62 mouse monoclonal antibody (Abcam) were visualized using WesternBreeze Chemiluminescent Immunodetection system (Invitrogen) with the exposure time to autoradiograph film (MXJB Plus; Kodak, Rochester, NY) adjusted to avoid over- or undersaturation. Precision Plus Protein™ Western Standards (Bio-Rad, Hercules, CA) followed by Precision Protein™ strep Tactin-AP conjugate (Bio-Rad) was used for a molecular marker of LC3. […]
The density of Western blot bands was quantified using Image-Pro Plus software. Quantification was adjusted to protein expression at 10 mmHg after normalization to the β-actin band at each pressure, and the relative gray-scale value was calculated by densitometric analysis of the obtained bands. […] Differences in expression levels were evaluated using Wilcoxon Rank-Sum Test, Tukey's or Dunnett's multiple comparison test. […]

Compound	RGC Survival (number of NeuN-positive cells), Average ([1]; Average of 5)	RGC Survival (number of NeuN-positive cells), individual areas 1-5 [1]	p62 expression (FIG. 2S), individual experiments 1-5 ([2]; single values)	p62 expression after 3-MA treatment (FIG. 3H), Average ([2]; 1 μM ent-AlloP, 10 mM 3-MA, relative, ent-AlloP = 1.00, Average of 4)	p62 expression after 3-MA treatment (FIG. 3H), individual experiments 1-4 ([2]; 1 μM ent-AlloP, 10 mM 3-MA, relative, ent-AlloP = 1.00, single values)
CC(=O)[C@H]1CC[C@H]2[C@@H]3CC[C@H]4C[C@H](O)CC[C@]4(C)[C@H]3CC[C@]12C [AlloP, allopregnanolone]	2084.0 per square millimeter	2220 per square millimeter and 2240 per square millimeter and 1860 per square millimeter and 2260 per square millimeter and 1840 per square millimeter	1.96 and 2.18 and 2.05 and 0.84 and 2.81	–	–
CC(=O)[C@@H]1CC[C@@H]2[C@H]3CC[C@@H]4C[C@@H](O)CC[C@@]4(C)[C@@H]3CC[C@]21C [ent-AlloP, ent-allopregnanolone]	–	2120 per square millimeter and 2280 per square millimeter and 2000 per square millimeter and 1840 per square millimeter and 1860 per square millimeter	0.92 and 0.40 and 1.00 and 0.28 and 1.08	1.00	1.00
